{"source": "paper PMC9763333", "about": "“In vitro characterization of immune modulating drug-eluting immunobeads towards transarterial embolization in cancer” (Scientific Reports, 2022)", "key": {"[1]": {"experiment": "Drug solubilization by salt formation in acid", "assay_type": "physicochemical", "in_short": "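Drug base suspended in water and titrated with 0.1 N HCl until dissolved, at a final 2.5 mg/mL; solution lyophilized to the hydrochloride salt or used directly for DC Bead LUMI loading. GS-9620 and its decomposition product analyzed by C8 reversed-phase HPLC (UV 230 nm) and LC/MS.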"}, "[2]": {"experiment": "Drug release from DC Bead LUMI in saline", "assay_type": "physicochemical", "conditions": "for percent drug eluted from DC Bead LUMI / drug eluted from DC Bead LUMI: saline, single replicates; for percent drug eluted from DC Bead LUMI: percent of drug loaded", "in_short": "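Beads loaded with drug (62.5 µL of DC Bead LUMI) were placed in 50 mL of saline (0.9 mg/mL, pH 7.4) and rocked upright at 37 °C at speed setting 10 (70 rpm). At each sampling time, 1 mL of medium was taken for drug quantification and replaced with 1 mL of fresh saline pre-warmed to 37 °C. Cumulative release accounted for drug removed in earlier samples, and the 50 mL volume kept sink conditions.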"}, "[3]": {"conditions": "cited from earlier work"}, "[4]": {"experiment": "Drug loading into DC Bead LUMI", "assay_type": "physicochemical", "in_short": "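Loading done in triplicate; amount loaded = initial drug in loading solution minus drug remaining and cumulative drug withdrawn for sampling. Maximum loading taken when loading-solution concentration stopped changing, before washing; relative % loading expressed on a molar basis against available SO3^- ions, mean ± SD.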"}}, "note": "Several values for one entry are separate records, joined by “and”; a condition that tells them apart may be missing. Equal entries are not always repeated. Entries after “also recorded” stand apart in the source; their conditions may differ."}
{"smiles": "COc1nc(OCc2cccc(-c3ccccc3)c2C)ccc1CNCCNC(C)=O", "note": "[BMS-202]", "values": [{"measurement": "solubilization upon addition of 0.1 N HCl", "setting": "[1]; 0.1 N HCl, deionized water", "value": "did not solubilize"}, {"measurement": "pH at which each drug dissolved for loading", "setting": "[1]; T in °C in parentheses in the cell (20.1 or 21.1)", "value": "2.11 (20.1)"}, {"measurement": "percent drug eluted from DC Bead LUMI", "setting": "[2]; 5 min", "value": "2.472% and 2.4176% and 2.385%"}, {"measurement": "drug eluted from DC Bead LUMI", "setting": "[2]; 5 min", "value": "8.513 µmol and 8.629 µmol and 8.378 µmol"}, {"measurement": "percent drug eluted from DC Bead LUMI", "setting": "[2]; 15 min", "value": "2.589% and 2.639% and 2.416%"}, {"measurement": "drug eluted from DC Bead LUMI", "setting": "[2]; 15 min", "value": "8.915 µmol and 9.4174 µmol and 8.488 µmol"}, {"measurement": "percent drug eluted from DC Bead LUMI", "setting": "[2]; 30 min", "value": "2.762% and 2.728% and 2.934%"}, {"measurement": "drug eluted from DC Bead LUMI", "setting": "[2]; 30 min", "value": "9.513 µmol and 9.737 µmol and 10.3104 µmol"}, {"measurement": "percent drug eluted from DC Bead LUMI", "setting": "[2]; 45 min", "value": "3.33% and 2.98% and 3.1337%"}, {"measurement": "drug eluted from DC Bead LUMI", "setting": "[2]; 45 min", "value": "11.4676 µmol and 10.637 µmol and 11.0105 µmol"}, {"measurement": "percent drug eluted from DC Bead LUMI", "setting": "[2]; 60 min", "value": "3.248% and 3.3497% and 3.385%"}, {"measurement": "drug eluted from DC Bead LUMI", "setting": "[2]; 60 min", "value": "11.1858 µmol and 11.9555 µmol and 11.8939 µmol"}, {"measurement": "percent drug eluted from DC Bead LUMI", "setting": "[2]; 120 min", "value": "4.556% and 3.526% and 4.046%"}, {"measurement": "drug eluted from DC Bead LUMI", "setting": "[2]; 120 min", "value": "15.688 µmol and 12.584 µmol and 14.2155 µmol"}, {"measurement": "percent drug eluted from DC Bead LUMI", "setting": "[2]; 180 min", "value": "5.055% and 4.61% and 4.461%"}, {"measurement": "drug eluted from DC Bead LUMI", "setting": "[2]; 180 min", "value": "17.4074 µmol and 16.4551 µmol and 15.6742 µmol"}, {"measurement": "percent drug eluted from DC Bead LUMI", "setting": "[2]; 240 min", "value": "5.272% and 4.993% and 5.201%"}, {"measurement": "drug eluted from DC Bead LUMI", "setting": "[2]; 240 min", "value": "18.1541 µmol and 17.8191 µmol and 18.2734 µmol"}, {"measurement": "percent drug eluted from DC Bead LUMI", "setting": "[2]; 300 min", "value": "5.575% and 5.37% and 5.345%"}, {"measurement": "drug eluted from DC Bead LUMI", "setting": "[2]; 300 min", "value": "19.198 µmol and 19.1657 µmol and 18.7818 µmol"}, {"measurement": "percent drug eluted from DC Bead LUMI", "setting": "[2]; 360 min", "value": "6.559% and 5.753% and 6.275%"}, {"measurement": "drug eluted from DC Bead LUMI", "setting": "[2]; 360 min", "value": "22.5859 µmol and 20.5327 µmol and 22.0468 µmol"}, {"measurement": "percent drug eluted from DC Bead LUMI", "setting": "[2]; 420 min", "value": "6.666% and 5.904% and 7.0124%"}, {"measurement": "drug eluted from DC Bead LUMI", "setting": "[2]; 420 min", "value": "22.954 µmol and 21.073 µmol and 24.6387 µmol"}, {"measurement": "percent drug eluted from DC Bead LUMI", "setting": "[2]; 480 min", "value": "7.32% and 7.2% and 7.286%"}, {"measurement": "drug eluted from DC Bead LUMI", "setting": "[2]; 480 min", "value": "25.2083 µmol and 25.6984 µmol and 25.5995 µmol"}, {"measurement": "percent drug eluted from DC Bead LUMI", "setting": "[2]; 1440 min", "value": "11.7204% and 10.5374% and 10.9377%"}, {"measurement": "drug eluted from DC Bead LUMI", "setting": "[2]; 1440 min", "value": "40.3605 µmol and 37.6096 µmol and 38.4305 µmol"}, {"measurement": "percent drug eluted from DC Bead LUMI", "setting": "[2]; 2880 min", "value": "14.9312% and 14.241% and 13.8435%"}, {"measurement": "drug eluted from DC Bead LUMI", "setting": "[2]; 2880 min", "value": "51.4172 µmol and 50.828 µmol and 48.6405 µmol"}, {"measurement": "percent drug eluted from DC Bead LUMI", "setting": "[2]; 4320 min", "value": "16.6252% and 15.679% and 15.9706%"}, {"measurement": "drug eluted from DC Bead LUMI", "setting": "[2]; 4320 min", "value": "57.2509 µmol and 55.9606 µmol and 56.1142 µmol"}, {"measurement": "percent drug eluted from DC Bead LUMI", "setting": "[2]; 8640 min", "value": "17.1401% and 16.2829% and 16.6995%"}, {"measurement": "drug eluted from DC Bead LUMI", "setting": "[2]; 8640 min", "value": "59.0238 µmol and 58.1158 µmol and 58.6753 µmol"}, {"measurement": "release behaviour in saline", "setting": "[2]; DC Bead LUMI", "value": "slow release; also recorded: prolonged release profile"}, {"measurement": "pKa (literature)", "setting": "[3]", "value": "7.74 (literature) [54]"}, {"measurement": "Relative percent drug loaded in DC Bead LUMI over time", "setting": "[4]; 5 min, single replicates", "value": "36.8467% and 31.5632% and 21.322%"}, {"measurement": "Relative percent drug loaded in DC Bead LUMI over time", "setting": "[4]; 15 min, single replicates", "value": "30.3231% and 39.2476% and 47.138%"}, {"measurement": "Relative percent drug loaded in DC Bead LUMI over time", "setting": "[4]; 30 min, single replicates", "value": "47.9681% and 46.426% and 44.5676%"}, {"measurement": "Relative percent drug loaded in DC Bead LUMI over time", "setting": "[4]; 45 min, single replicates", "value": "56.9526% and 51.0915% and 54.8687%"}, {"measurement": "Relative percent drug loaded in DC Bead LUMI over time", "setting": "[4]; 60 min, single replicates", "value": "63.8406% and 58.0947% and 63.6687%"}, {"measurement": "Relative percent drug loaded in DC Bead LUMI over time", "setting": "[4]; 120 min, single replicates", "value": "85.531% and 84.4265% and 85.0145%"}, {"measurement": "Relative percent drug loaded in DC Bead LUMI over time", "setting": "[4]; 180 min, single replicates", "value": "98.296% and 98.7957% and 94.8002%"}, {"measurement": "Relative percent drug loaded in DC Bead LUMI over time", "setting": "[4]; 240 min, single replicates", "value": "106.342% and 112.145% and 106.321%"}, {"measurement": "Relative percent drug loaded in DC Bead LUMI over time", "setting": "[4]; 300 min, single replicates", "value": "111.107% and 116.727% and 112.613%"}, {"measurement": "Relative percent drug loaded in DC Bead LUMI over time", "setting": "[4]; 360 min, single replicates", "value": "115.109% and 120.479% and 108.292%"}, {"measurement": "Relative percent drug loaded in DC Bead LUMI over time", "setting": "[4]; 420 min, single replicates", "value": "117.263% and 122.293% and 119.836%"}, {"measurement": "Relative percent drug loaded in DC Bead LUMI over time", "setting": "[4]; 480 min, single replicates", "value": "118.462% and 124.442% and 121.713%"}, {"measurement": "Relative percent drug loaded in DC Bead LUMI over time", "setting": "[4]; 1440 min, single replicates", "value": "121.282% and 124.78% and 117.021%"}, {"measurement": "Relative percent drug loaded in DC Bead LUMI over time", "setting": "[4]; 2880 min, single replicates", "value": "119.234% and 124.78% and 122.668%"}, {"measurement": "Relative percent drug loaded in DC Bead LUMI over time", "setting": "[4]; 4320 min, single replicates", "value": "118.18% and 124.96% and 121.21%"}, {"measurement": "Relative percent drug loaded in DC Bead LUMI over time", "setting": "[4]; 8640 min, single replicates", "value": "119.5% and 124.96% and 122.329%"}, {"measurement": "drug loaded above the predicted capacity of the bead", "setting": "[4]; DC Bead LUMI", "value": "approximately 23%"}, {"measurement": "loading behaviour", "setting": "[4]; DC Bead LUMI", "value": "slower loading"}, {"measurement": "Relative percent drug loaded (maximum, percent of SO3− available on a molar basis)", "setting": "[4]; DC Bead LUMI, mean (n = 3), listed as BMS-200", "value": 122.93, "unit": "%"}, {"measurement": "equivalent of drug loaded to sulfonated bead", "setting": "[4]; DC Bead LUMI, mean ± SD", "value": "0.35 ± 0.01", "unit": "mM drug/ml beads"}, {"measurement": "Maximum drug loaded", "setting": "[4]; DC Bead LUMI, mean ± SD, n = 3, base form except Dox (salt form)", "value": "148.05 ± 2.24", "unit": "mg drug/ml beads"}, {"measurement": "Maximum drug loaded (Triplicate), %", "setting": "[4]; DC Bead LUMI, single replicates, listed as BMS-200", "value": "121.282% and 124.83% and 122.668%"}, {"measurement": "Drug: sulfonate", "setting": "[4]; molar ratio at maximum loading, DC Bead LUMI", "value": 1.223}, {"measurement": "Theoretical maximum loading level based on SO3− contents", "setting": "[4]; per mL DC Bead LUMI, assuming 1:1 drug to sulfonate", "value": "120.40 mg and 120.4 mg"}]}
